The target of the experiment is T1, PLK2 (Homo sapiens, UniProt Q9NYY3).
T1 construct: purchased Thermo Fisher Scientific (Life Technologies) SelectScreen
As to the kind of experiment: SelectScreen Z'LYTE. The class given is biochemical. In a few lines:
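SelectScreen broad panel; activity (Z'LYTE, Adapta) plus binding formats. ATP: Km app for CSF1R Z'LYTE; 10 for CAMK1 Adapta. Readout = % per kinase.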

These results are taken from article PMC6934184, “Selective DNA-PKcs inhibition extends the therapeutic index of localized radiotherapy and chemotherapy” (The Journal of Clinical Investigation, 2019).

Usually inhibition stands for the relative decrease from the control value, in per cent. The low end stands for a weak effect, the high end for a strong effect.

T1 sequence (Q9NYY3 whole entry): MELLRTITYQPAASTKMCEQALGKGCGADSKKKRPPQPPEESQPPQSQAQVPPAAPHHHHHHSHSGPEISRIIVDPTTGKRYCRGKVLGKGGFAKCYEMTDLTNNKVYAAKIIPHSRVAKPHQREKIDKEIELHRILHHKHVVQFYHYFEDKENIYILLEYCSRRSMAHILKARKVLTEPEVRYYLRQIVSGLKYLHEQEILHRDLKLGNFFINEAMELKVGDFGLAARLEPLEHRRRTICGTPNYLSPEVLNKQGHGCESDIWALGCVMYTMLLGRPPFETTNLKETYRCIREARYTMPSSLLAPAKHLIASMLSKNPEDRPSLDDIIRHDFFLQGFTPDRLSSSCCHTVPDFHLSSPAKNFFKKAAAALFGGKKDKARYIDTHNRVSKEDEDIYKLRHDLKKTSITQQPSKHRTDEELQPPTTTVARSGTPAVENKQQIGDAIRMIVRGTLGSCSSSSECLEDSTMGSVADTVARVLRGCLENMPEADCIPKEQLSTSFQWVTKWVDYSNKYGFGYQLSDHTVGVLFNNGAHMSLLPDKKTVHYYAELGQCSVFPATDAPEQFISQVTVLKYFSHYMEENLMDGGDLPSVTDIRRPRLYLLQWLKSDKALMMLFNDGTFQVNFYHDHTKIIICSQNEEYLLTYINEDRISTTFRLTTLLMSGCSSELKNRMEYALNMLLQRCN

`CN(C(=O)CN1CCOCC1)c1ccc2sc3c(-c4cccc5c(=O)cc(N6CC7CCC(C6)O7)oc45)cccc3c2c1` [NU5455]: the inhibition at 1 µM came out at 14.1%.
